From ChEMBL document CHEMBL4130372, “The antitrypanosomal and antitubercular activity of some nitro(triazole/imidazole)-based aromatic amines” (Eur J Med Chem, 2017)
Converted amounts (≈) assume the structure as drawn.

Experiments:
Assay type in all cases: functional
[1] = test system: Mycobacterium tuberculosis; test: Antitubercular activity against Mycobacterium tuberculosis RIF-R1 harboring rpoB S522L mutant after 5 days by fluorescence-based assay
[2] = test system: Mycobacterium tuberculosis; test: Antitubercular activity against Mycobacterium tuberculosis INH-R1 harboring katG Y155 truncated mutant after 5 days by fluorescence-based assay
[3] = test system: Mycobacterium tuberculosis; test: Antitubercular activity against Mycobacterium tuberculosis FQ-R1 harboring gyrB D94N mutant after 5 days by fluorescence-based assay

| SMILES | MIC [1] [µM] | MIC [2] [µM] | MIC [3] [µM] |
| --- | --- | --- | --- |
| O=[N+]([O-])c1ncn(CCCCNc2ncnc3ccccc23)n1 | >200 | 200 (≈ 62.7 µg/mL) | >200 |
| O=[N+]([O-])c1nccn1CCCCNc1ccnc2c(Cl)cccc12 | >200 | >200 | >200 |
| NNC(=O)c1ccncc1 [ISONIAZID] | 0.31 (≈ 0.0425 µg/mL) | >200 | 0.35 (≈ 0.048 µg/mL) |
| C[C@H]1COc2c(N3CCN(C)CC3)c(F)cc3c(=O)c(C(=O)O)cn1c23.C[C@H]1COc2c(N3CCN(C)CC3)c(F)cc3c(=O)c(C(=O)O)cn1c23.O [LEVOFLOXACIN] | 0.85 | 1.1 | 14 |
| CO[C@H]1/C=C/O[C@@]2(C)Oc3c(C)c(O)c4c(O)c(c(/C=N/N5CCN(C)CC5)c(O)c4c3C2=O)NC(=O)/C(C)=C\C=C\[C@H](C)[C@H](O)[C@@H](C)[C@@H](O)[C@@H](C)[C@H](OC(C)=O)[C@@H]1C [RIFAMPIN] | 7.2 (≈ 5.93 µg/mL) | 0.012 (≈ 0.00988 µg/mL) | >0.04 |
